According to the supplement of paper PMC10307832:

Key:
Test in all cases: relative viability (nuclei count vs DMSO), 5 days (fraction); higher = more cells survive
[1] = compound: CCc1cnn2c(NCc3ccc[n+]([O-])c3)cc(N3CCCC[C@H]3CCO)nc12 [Dinaciclib] + C[C@]1(O)C[C@@H](c2nc(-c3ccc4ccc(-c5ccccc5)nc4c3)c3c(N)nccn32)C1 [Linsitinib] (partner 1 µM)
In short: (§1)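 Relative viability equals treated-well nuclei counts divided by vehicle-well nuclei counts. Counts came from 4× images of lung cancer cell lines grown in 1536-well plates for 5 days after pin-tool dosing on the day after seeding. Dosing used one drug alone or a fixed anchor-drug dose plus five library-drug doses (not always all listed) in √10 steps, and values are medians of duplicate plates.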

[2] = compound: CCc1cnn2c(NCc3ccc[n+]([O-])c3)cc(N3CCCC[C@H]3CCO)nc12 [Dinaciclib] + CC(C)C[C@H](NC(=O)[C@H](Cc1ccccc1)NC(=O)c1cnccn1)B(O)O [Bortezomib] (partner 0.002 µM)
In short: as §1

[3] = compound: CCc1cnn2c(NCc3ccc[n+]([O-])c3)cc(N3CCCC[C@H]3CCO)nc12 [Dinaciclib] + CS(=O)(=O)N1CCN(Cc2cc3nc(-c4cccc5[nH]ncc45)nc(N4CCOCC4)c3s2)CC1 [Pictilisib] (partner 1 µM)
In short: as §1

[4] = compound: CCc1cnn2c(NCc3ccc[n+]([O-])c3)cc(N3CCCC[C@H]3CCO)nc12 [Dinaciclib] + C[C@@H](Oc1cc(-c2cnn(C3CCNCC3)c2)cnc1N)c1c(Cl)ccc(F)c1Cl [Crizotinib] (partner 1 µM)
In short: as §1

[5] = compound: CCc1cnn2c(NCc3ccc[n+]([O-])c3)cc(N3CCCC[C@H]3CCO)nc12 [Dinaciclib] + Cc1nc(NC(=O)N2CCC[C@H]2C(N)=O)sc1-c1ccnc(C(C)(C)C(F)(F)F)c1 [Alpelisib] (partner 2 µM)
In short: as §1

| Cell Line | relative viability ([1]; first compound 0.009487 µM) | relative viability ([1]; first compound 0.03 µM) | relative viability ([1]; first compound 0.09487 µM) | relative viability ([1]; first compound 0.3 µM) | relative viability ([2]; first compound 0.009487 µM) | relative viability ([2]; first compound 0.03 µM) | relative viability ([2]; first compound 0.09487 µM) | relative viability ([2]; first compound 0.3 µM) | relative viability ([3]; first compound 0.009487 µM) | relative viability ([3]; first compound 0.03 µM) | relative viability ([3]; first compound 0.09487 µM) | relative viability ([3]; first compound 0.3 µM) | relative viability ([4]; first compound 0.009487 µM) | relative viability ([4]; first compound 0.03 µM) | relative viability ([4]; first compound 0.09487 µM) | relative viability ([4]; first compound 0.3 µM) | relative viability ([5]; first compound 0.009487 µM) | relative viability ([5]; first compound 0.03 µM) | relative viability ([5]; first compound 0.09487 µM) | relative viability ([5]; first compound 0.3 µM) |
| --- | --- | --- | --- | --- | --- | --- | --- | --- | --- | --- | --- | --- | --- | --- | --- | --- | --- | --- | --- | --- |
| NCI-H2405 | 0.989 | 0.25 | 0.262 | 0.235 | 0.904 | 0.761 | 0.207 | 0.271 | 0.572 | 0.226 | 0.227 | 0.177 | 0.772 | 0.224 | 0.201 | 0.209 | 0.876 | 0.22 | 0.208 | 0.184 |
| NCI-H3122 | 0.932 | 0.147 | 0.145 | 0.147 | 1 | 0.195 | 0.139 | 0.151 | 0.385 | 0.178 | 0.134 | 0.13 | 0.253 | 0.127 | 0.145 | 0.13 | 0.489 | 0.157 | 0.119 | 0.15 |
| PC-3 [JPC-3] | 0.912 | 0.991 | 0.537 | 0.237 | 0.679 | 0.791 | 0.226 | 0.231 | 0.556 | 0.578 | 0.262 | 0.233 | 0.953 | 0.799 | 0.232 | 0.198 | 0.99 | 0.899 | 0.362 | 0.21 |
| PC-14 | 0.873 | 0.244 | 0.0973 | 0.0775 | 0.807 | 0.109 | 0.0534 | 0.0475 | 0.436 | 0.145 | 0.0318 | 0.0249 | 0.651 | 0.241 | 0.0877 | 0.0668 | 0.947 | 0.515 | 0.0838 | 0.0509 |
| RERF-LC-KJ | 0.924 | 0.193 | 0.147 | 0.099 | 1.1 | 0.327 | 0.157 | 0.173 | 0.448 | 0.19 | 0.124 | 0.117 | 0.885 | 0.179 | 0.131 | 0.122 | 0.826 | 0.41 | 0.154 | 0.161 |
| SK-LU-1 | 0.859 | 0.218 | 0.165 | 0.221 | 1.09 | 0.17 | 0.188 | 0.193 | 0.57 | 0.167 | 0.155 | 0.152 | 0.602 | 0.207 | 0.19 | 0.204 | 0.637 | 0.197 | 0.18 | 0.194 |
| SW 1573 | 0.679 | 0.109 | 0.0988 | 0.0866 | 0.777 | 0.104 | 0.0824 | 0.0954 | 0.452 | 0.225 | 0.0748 | 0.064 | 0.608 | 0.0718 | 0.066 | 0.0807 | 0.659 | 0.432 | 0.0931 | 0.106 |
| UMC-11 | 0.282 | 0.167 | 0.169 | 0.168 | 0.196 | 0.107 | 0.108 | 0.131 | 0.217 | 0.145 | 0.132 | 0.136 | 0.157 | 0.0965 | 0.094 | 0.0987 | 0.285 | 0.147 | 0.135 | 0.158 |
